Earlier results, collected in patent US8071125B2, “Transdermal patch containing isosorbide dinitrate and bisoprolol” (Beijing Kangbeide Pharmaceutical Technology Development …, priority 2005, dated 2011).

Test system: Patients with Primary Hypertension
Details: oral administration

Compound: CC(C)NCC(O)COc1ccc(COCCOC(C)C)cc1 (stereo not shown) [Bisoprolol]
- average reduction of the heart rate after the treatment: 15.1%
